Converted amounts (≈) assume the structure as drawn. Read-outs that look alike come from different tables or passages of the source. Ends that are not written are not given here. Peptide text beside a SMILES is read from it. * marks the point of attachment. Succinimide(1-Et,3-yl) = CCN1C(=O)CC(*)C1=O
Experiments:
K. pneumoniae LPS = test: Polarization of PMB-FITC by LPS; assay type: binding; settings: 50 ul of 1 mg/ml LPS; PMB-FITC 1 to 150
P. aeruginosa LPS = test: Polarization of PMB-FITC by LPS; assay type: binding; settings: 50 ul of 1 mg/ml LPS; PMB-FITC 1 to 150
R. sphaeroides LPS = test: Polarization of PMB-FITC by LPS; assay type: binding; settings: 50 ul of 1 mg/ml LPS; PMB-FITC 1 to 150
S. marsecens LPS = test: Polarization of PMB-FITC by LPS; assay type: binding; settings: 50 ul of 1 mg/ml LPS; PMB-FITC 1 to 150
S. enteriditis LPS = test: Polarization of PMB-FITC by LPS; assay type: binding; settings: 50 ul of 1 mg/ml LPS; PMB-FITC 1 to 150
S. typhimurium LPS = test: Polarization of PMB-FITC by LPS; assay type: binding; settings: 50 ul of 1 mg/ml LPS; PMB-FITC 1 to 150
E. coli 011B4 LPS = assay type: binding; settings: 50 ul of 1 mg/ml LPS; PMB-FITC 1 to 150
Text: (§1) The data for this example were generated on a fluorescence polarimeter (FPM-1, provided by Jolley Consulting and Research, Inc.) based on this optical configuration. The instrument and software generates output which includes vertical intensity (IV), horizontal intensity (IH), total intensity (IT) after correction of horizontal intensity by a constant (g), fluorescence polarization in millipolarization unit (mP) and lamp feed-back, a correction for lamp and photomultiplier tube variations.
(§2) Each of ten different lipopolysaccarides (LPS) were dissoved in distilled water at a concentration of 1 mg/ml.

E. coli 026B6 LPS = assay type: binding; settings: 50 ul of 1 mg/ml LPS; PMB-FITC 1 to 150
Text: as §1, §2

S. flexneri LPS = assay type: binding; settings: 50 ul of 1 mg/ml LPS; PMB-FITC 1 to 150
Text: as §1, §2

V. cholera LPS = assay type: binding; settings: 50 ul of 1 mg/ml LPS; PMB-FITC 1 to 150
Text: as §1, §2

E. coli HB101 [1] = system: E. coli HB101
E. coli HB101 [2] = test: MIC and MBC in broth; assay type: cell-based; settings: Example 38
[3] = system: Staphylococcus epidermidis; test: MIC and MBC; assay type: cell-based
S. aureus = test: MIC testing against S. aureus; assay type: cell-based, Staph. aureus; settings: Staphylococcus aureus
Experimental: 1.5 ml fractions were collected. The fractions in the void volume were pooled and sterile filtered. The activity of the conjugate was determined by standard MIC testing against S. aureus.

[4] = vancomycin after reaction with crosslinker, aqueous solution
Text: Vancomycin in phosphate buffer was reacted with each of the following compounds: sulfosuccinimidyl 6-[3-(2-pyridyldithio)propionamide]hexanoate (“sulfo-LC-SPDP”), m-maleimidobenzoyl-N-hydroxysulfosuccinimide ester (“sulfo-MBS”), sulfosuccinimidyl(4-iodoacetyl)aminobenzoate (“sulfo-SIAB”), and sulfosuccinimidyl 4-(p-maleimidophenyl)butyrate (“sulfo-SMPB”). All four crosslinking agents react with a primary amino group on the vancomycin molecule, resulting in the formation of an amide bond. […] Finally, vancomycin derivatized by sulfo-SIAB posesses an iodo group, which can also react with a sulfhydryl group on either reduced IgG or derivatized IgG, by nucleophilic substitution for the iodo group. […] The mixtures were incubated with agitation at ambient temperature.
E. coli 0111:B4 [5] = assay type: cell-based; set-up: key: −: no agglutination; +: microagglutination; +++: macroagglutination; settings: avidin beads loaded with compound
Experimental: (§3) 100 ul polystyrene beads (Spherotech […], 5% w/v) were aliquoted to two 1.5 mL microcentrifuge tubes, centrifuged 1 min at 12,000 g in microcentrifuge and washed 2×with 1 ml PBS (vortexed and recentrifuged 1-2 min after each wash). The beads were resuspended in 900 ul PBS, and 100 ul of 1 mg/ml solution of avidin (Sigma) added, and the tubes rotated overnight at room temperature. The beads were pelleted, and washed sequentially as described above with 1 ml PBS, PBS+0.5% tween 20 (PBST), and PBS, and each sample resuspended in 200 ul PBS. The samples were pooled and stored at 4 degrees.
(§4) 20 ul avidin coated beads were aliquoted into 2×1.5 ml microcentrifuge tubes, and non-specifically binding sites blocked by rotating with 1 ml PBS+1% BSA for 1 hr at room temperature. […] The samples were pelleted, and washed with 1 ml PBS, repelleted and resuspended with 20 ul PBS. III Bacterial Agglutination Assays
(§5) 5 ul of each resin was added to 20 ul bacteria (1/10 dilution of a saturated overnight culture) in independant depression wells (2 wells/bacteria tested). The samples were incubated 30 min at 37 degrees, swirled, and agglutination scored. (Note that −=no agglutination, +=microagglutination and +++=macroagglutination)

E. coli HB101 [6] = assay type: cell-based; set-up: key: −: no agglutination; +: microagglutination; +++: macroagglutination; settings: avidin beads loaded with compound
Experimental: as §3, §4, §5

Salmonella 34576 [7] = assay type: cell-based; set-up: key: −: no agglutination; +: microagglutination; +++: macroagglutination; settings: avidin beads loaded with compound
Experimental: as §3, §4, §5

E. coli J5 = assay type: cell-based; set-up: key: −: no agglutination; +: microagglutination; +++: macroagglutination; settings: for Agglutination by avidin beads: Table 53
Experimental: as §3, §4, §5
To determine if free Immunoadaptor™ compounds can also stably bind surface exposed bacterial structures, agglutination assays were performed using bacteria prebound to Immunoadaptor™ compounds. The assay was performed with J5 bacteria, since the agglutination signal (see table above) was the strongest with this strain. 40 ul avidin coated resin was blocked for 1 hr at room temperature with 1 ml PBS+1% BSA, pelleted as described above, and resuspended in 40 ul PBS. […] The following assays were performed:
Incubated 1 hr at 37 degrees in depression well, swirled and agglutination scored.
Incubated 10 min at 37 degrees then added 5 ul avidin coated beads. Incubated 1 hr at 37 degrees in depression well, swirled and agglutination scored.
Incubated 15 min at 37 degrees, pelleted cells by centrifugation, washed with 100 ul PBS (resuspended cells with micropipetter) and repelleted. Cells were resuspended in 80 ul PBS, 20 ul aliquots distributed to depression well, 5 ul avidin coated beads added, and, incubated 1 hr at 37 degrees, swirled and agglutination scored.

[8] = system: J5 bacteria phagocytosed by J774A.1 mouse macrophage cell line; assay type: cell-based; settings: Table 57; + anti-avidin (1/1000)
E. coli 0111:B4 [9] = system: E. coli 0111:B4
[10] = biological target: avidin and chicken anti-PMB antibody (Gallus gallus, UniProt P02701)
avidin and chicken anti-PMB antibody, sequence (P02701 25-152): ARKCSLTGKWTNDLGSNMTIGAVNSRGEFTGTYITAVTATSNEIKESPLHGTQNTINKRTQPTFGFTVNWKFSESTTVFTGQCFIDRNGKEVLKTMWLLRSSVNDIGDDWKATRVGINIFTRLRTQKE
Experimental: The capture ELISA was performed as described below. […] The coating suspensions were decanted, and all wells were washed three times using PBS+0.5% Tween 20 (PBST). In order to block non-specific binding sites, 100 ul of 1% BSA (Sigma, St. Louis, Mo.) in PBS (blocking solution) was then added to each well, and the plates were incubated for 1 hr. at 37° C.
The blocking solution was decanted, and duplicate samples of 150 ul of either PMB-Cy-Biotin or PMB-Cy-Fl added to the first well of a dilution series. The initial testing concentration of the premixed conjugate was 10 ng/ml in blocking buffer (see above), followed by 5 fold dilutions in blocking buffer. This was accomplished by serially transferring 30 ul aliquots to 120 ul buffer, mixing, and repeating the dilution into a fresh well. After the final dilution, 30 ul was removed from the well such that all wells contained 120 ul final volume. A total of 2 such dilutions were performed. […] Following this incubation, the serially diluted samples were decanted, and the wells were washed six times using PBST (Phosphate-Buffered Saline with Tween). To each well, 100 ul of 1/1000 diluted chicken anti-PMB antibody or chicken preimmune, diluted in blocking buffer was added, and the plate incubated 1 hr at 37° C. The antibody solutions were decanted and the plates were washed as described above. To each well, 100 ul of 1/1000 diluted rabbit anti-chicken IgG alkaline phosphatase (Sigma) diluted in blocking buffer was added, and the plate incubated 1 hr at 37° C. The antibody solutions were decanted and the plates were washed as described above, substituting 50 nM Na2CO3, pH 9.5 for the PBST in the final wash. The plates were developed by the addition of 100 ul of a solution containing 1 mg/ml para-nitro phenyl phosphate (Sigma, St. Louis, Mo.) dissolved in 50 nM Na2CO3, 10 mM MgCl2, pH 9.5 to each well, and incubating the plates at room temperature in the dark overnight. […] Only the ELISA readings from the maximally diluted samples in each dilution series are shown.

E. coli 25922 [11] = assay type: cell-based; settings: Table 42
E. coli H16 [12] = assay type: cell-based; settings: Table 42
E. coli 25922 [13] = system: E. coli 25922
E. coli H16 [14] = system: E. coli H16
Salmonella 34576 [15] = settings: Table 43
avidin (Sigma) [16] = biological target: avidin (Sigma) (UniProt P02701); test: capture ELISA: PMB-Cys-FL on avidin-coated wells, detected with chicken anti-PMB 1/1000
avidin (Sigma), sequence (P02701 25-152 limits assumed): as the sequence (P02701 25-152) above

avidin (Sigma) [17] = biological target: avidin (Sigma) (UniProt P02701); test: capture ELISA: PMB-Cys-FL on avidin-coated wells, chicken preimmune 1/1000 (double control)
[18] = biological target: polymyxin B-cysteine-maleimide-fluorescein (PMB-Cys-Mal-FL) (Bacillus polymyxa); test: fluorescence intensity of PMB-Cys-Mal-FL with antibody
[19] = biological target: polymyxin B-cysteine-maleimide-fluorescein (PMB-Cys-Mal-FL) (Bacillus polymyxa); test: fluorescence quenching on PMB-Cys-Mal-FL coated E. coli
[20] = biological target: polymyxin B-cysteine-maleimide-fluorescein (PMB-Cys-Mal-FL) (Bacillus polymyxa); test: quenching of PMB-Cys-Mal-FL coated on E. coli 0111:B4; antibody 1 ug/ml (without antibody: 40)
[21] = biological target: polymyxin B-cysteine-maleimide-fluorescein (PMB-Cys-Mal-FL) (Bacillus polymyxa); test: quenching of PMB-Cys-Mal-FL coated on E. coli 0111:B4; antibody 2 ug/ml (without antibody: 40)
[22] = biological target: polymyxin B-cysteine-maleimide-fluorescein (PMB-Cys-Mal-FL) (Bacillus polymyxa); test: fluorescence polarization, antibody 5×10^-8 M with PMB-Cys-Mal-FL 10^-7 M (free conjugate: 740)
[23] = biological target: polymyxin B-cysteine-maleimide-fluorescein (PMB-Cys-Mal-FL) (Bacillus polymyxa); test: fluorescence polarization, antibody 5×10^-8 M with PMB-Cys-Mal-FL 10^-7 M (free conjugate: 845)
[24] = biological target: polymyxin B-cysteine-maleimide-fluorescein (PMB-Cys-Mal-FL) (Bacillus polymyxa); test: quenching of PMB-Cys-Mal-FL coated on E. coli 0111:B4; antibody 22 ug/ml (without antibody: 40)
[25] = biological target: polymyxin B-cysteine-maleimide-fluorescein (PMB-Cys-Mal-FL) (Bacillus polymyxa); test: fluorescence polarization, antibody 5×10^-8 M with PMB-Cys-Mal-FL 10^-7 M (free conjugate: 32.5 mP)
[26] = biological target: Fc receptors of the human U937 monocyte/macrophage cell line (human); test: saturation binding of 125I-IgG to 2×10^5 U937 cells
[27] = biological target: Fc receptors of the human U937 monocyte/macrophage cell line (human); test: 1×10^-8 M 125I-IgG on 2×10^5 U937 cells, no competitor
avidin (Sigma) [28] = biological target: avidin (Sigma) (UniProt P02701); test: capture ELISA: PMB-Cys-Biotin on avidin-coated wells, detected with chicken anti-PMB 1/1000; maximally diluted sample of a 5-fold series from 10 ng/ml
[29] = Table 40, first number of the cell

PMB-5-Thiocabamoyl-fluorescein [PMB-FITC]
mP (K. pneumoniae LPS): 258.5
mP (P. aeruginosa LPS): 236.4
mP (R. sphaeroides LPS): 224.7
mP (S. marsecens LPS): 262.6
mP (S. enteriditis LPS): 255.9
mP (S. typhimurium LPS): 266.8
mP (E. coli 011B4 LPS): 254.6
mP (E. coli 026B6 LPS): 70.3
mP (S. flexneri LPS): 246.3
mP (V. cholera LPS): 174.8
MIC (E. coli HB101 [1]; [29]): 0.2 µg/mL
MIC (E. coli HB101 [1]; Table 44): 0.2 µg/mL

Limulus antilipopolysaccharide factor [native LALF]
MIC (E. coli HB101 [2]): 16 µg/mL

CN[C@H](CC(C)C)C(=O)N[C@H]1C(=O)N[C@@H](CC(N)=O)C(=O)N[C@H]2C(=O)N[C@H]3C(=O)N[C@H](C(=O)N[C@H](C(=O)O)c4cc(O)cc(O)c4-c4cc3ccc4O)[C@H](O)c3ccc(c(Cl)c3)Oc3cc2cc(c3O[C@@H]2O[C@H](CO)[C@@H](O)[C@H](O)[C@H]2O[C@H]2C[C@](C)(N)[C@H](O)[C@H](C)O2)Oc2ccc(cc2Cl)[C@H]1O [Vanco, Vancomycin]
MBC [3]: 2.5 µg/mL (≈ 1.73 µM)
MIC (S. aureus): 1 to 2 µg/mL (≈ 0.69 to 1.38 µM)
MIC (S. aureus; read-out: MIC w/o IgG): 1 µg/mL (≈ 0.69 µM)
Soluble [4]: Yes

Biotinylated Cysteinyl PMB [PMB-Cys-Biotin]
Agglutination (E. coli 0111:B4 [5]): −
Agglutination (E. coli HB101 [6]): +
Agglutination (Salmonella 34576 [7]): +
Agglutination by avidin beads (E. coli J5; Chase format): +
Agglutination by avidin beads (E. coli J5; Premix format): +
Agglutination by avidin beads (E. coli J5; Wash + Chase format): +
Agglutination (E. coli J5; avidin beads loaded with compound): +++
% Macrophage with phagocytosed bacteria [8]: 21%
Recovered bacterial colonies [8]: 74
MIC (E. coli 0111:B4 [9]; [29]): 1.0 µg/mL
ELISA absorbency at 410 nm ([10]; Anti-PMB test antibody, Avidin coated wells, maximally diluted sample): 1.252
ELISA absorbency at 410 nm ([10]; Anti-PMB, PBS coated wells): 0.016
ELISA absorbency at 410 nm ([10]; Preimmune, Avidin coated wells): 0.014
ELISA absorbency at 410 nm ([10]; Preimmune, PBS coated wells): 0.019

ALYKKLLKKLLKSAKKLG [C18G, ala-leu-tyr-lys-lys-leu-leu-lys-lys-leu-leu-lys-ser-ala-lys-lys-leu-gly, reference compound]
BDA (E. coli 25922 [11]): 1 µg/mL
BDA (E. coli H16 [12]): 5 to 10 µg/mL
MIC (E. coli 0111:B4 [9]; 0111:B4): 10 µg/mL
MIC (E. coli 25922 [13]): 2 to 4 µg/mL
MIC (E. coli H16 [14]): 30 µg/mL
MIC (Salmonella 34576 [15]): 5 to 10 µg/mL

CCN1C(=O)CC(SC[C@H](NC(=O)CNC(=O)[C@H](CC(C)C)NC(=O)[C@H](CCCCN)NC(=O)[C@H](CCCCN)NC(=O)[C@H](C)NC(=O)[C@H](CO)NC(=O)[C@H](CCCCN)NC(=O)[C@H](CC(C)C)NC(=O)[C@H](CC(C)C)NC(=O)[C@H](CCCCN)NC(=O)[C@H](CCCCN)NC(=O)[C@H](CC(C)C)NC(=O)[C@H](CC(C)C)NC(=O)[C@H](CCCCN)NC(=O)[C@H](CCCCN)NC(=O)[C@H](Cc2ccc(O)cc2)NC(=O)[C@H](CC(C)C)NC(=O)[C@H](C)N)C(N)=O)C1=O (stereo partly drawn) [C19G-NEM] (H-ALYKKLLKKLLKSAKKLGC(Succinimide(1-Et,3-yl))-NH2; N-terminus assumed)
BDA (E. coli H16 [12]): 2.5 to 5 µg/mL
MIC (E. coli 0111:B4 [9]; 0111:B4): 6 µg/mL (≈ 2.64 µM)
MIC (E. coli H16 [14]): 10 µg/mL (≈ 4.4 µM)
MIC (Salmonella 34576 [15]): 6 µg/mL (≈ 2.64 µM)

polymyxin B-cysteine-maleimide-fluorescein (PMB-Cys-Mal-FL) (peptide)
absorbance at 410 nm (avidin (Sigma) [16]): 0.033 A410
absorbance at 410 nm (avidin (Sigma) [17]): 0.01 A410

mouse monoclonal anti-fluorescein antibody (#4-4-20)
percent of the intensity signal quenched [18]: 95%
fraction of fluorescein available to bind the antibody [19]: 0.67
FLUORESCENCE (AFU) [20]: 16 AFU
FLUORESCENCE (AFU) [21]: 15 AFU
IH (horizontal intensity) [22]: 25
IV (vertical intensity) [23]: 61
FLUORESCENCE (AFU) [24]: 15 AFU
mP (millipolarization) [25]: 390 mP

125I-labelled human IgG (New England Nuclear) (antibody)
saturating concentration [26]: 10 nM
bound radioactivity (cpm) [27]: 12000 cpm

Biotinylated Cysteinyl PMB (PMB-Cys-Biotin) (peptide)
absorbance at 410 nm (avidin (Sigma) [28]): 1.25 A410

Reference: patent US6579696B1, “Polymyxin B conjugates” (priority 1992, dated 2003)
